Measurements from patent US20250042887A1, “GLYCOGEN SYNTHASE KINASE-3 (GSK3) INHIBITOR COMPOUNDS FOR USE AS ANTIVIRAL AGENTS” (priority 2021, published 2025).
“Also recorded” adds a separate entry of the source.

Test system: SARS-CoV-2 B.1.617.2 and BA.1 variants
Type: cell-based
Conditions: B.1.617.2 (Delta) and BA.1 (Omicron)

## CSc1ccc(-n2cnc3ccc(-c4nnc(CCc5cccc(C#N)c5)o4)cc32)cc1 [Compound P-0717632]
  effect on SARS-CoV-2 variants: reduced intracellular viral titres; also recorded: inhibited
